Measured values from ChEMBL document CHEMBL3046629, “Fungicidal Activities of 2-Methoxy-2-[2-(benzylideneaminooxymethyl)phenyl]-N-methylacetamide Derivatives” (2002).

Assays:
Format in all cases: functional
Podosphaera fuliginea [1] = test: Fungicidal activity against Podosphaera fuliginea assessed as cucumber powdery mildew disease control at 7.8 ppm treated on upper surface of leaf 24 hr before inoculation at 23 +/- 2 degC measured after 10 days by preventive manner
[2] = system: Pseudoperonospora cubensis; test: Fungicidal activity against Pseudoperonospora cubensis assessed as cucumber downy mildew disease control at 500 ppm foliar application 24 hr before inoculation onto the abaxial(treated) surface of leaf by preventive manner
Botrytis cinerea [3] = test: Fungicidal activity against Botryotinia fuckeliana assessed as cucumber gray mold disease control at 500 ppm treated on upper surface of leaf 24 hr before inoculation at 22 +/- 2 degC measured after 3 days by preventive manner
[4] = system: Pseudoperonospora cubensis; test: Fungicidal activity against Pseudoperonospora cubensis assessed as cucumber downy mildew disease control at 125 ppm foliar application 24 hr before inoculation onto the adaxial(treated) surface of leaf by preventive manner
[5] = system: Pseudoperonospora cubensis; test: Fungicidal activity against Pseudoperonospora cubensis assessed as cucumber downy mildew disease control at 500 ppm foliar application 24 hr before inoculation onto the adaxial(treated) surface of leaf by preventive manner
Podosphaera fuliginea [6] = test: Fungicidal activity against Podosphaera fuliginea assessed as cucumber powdery mildew disease control at 500 ppm treated on upper surface of leaf 24 hr before inoculation at 23 +/- 2 degC measured after 10 days by preventive manner
Podosphaera fuliginea [7] = test: Fungicidal activity against Podosphaera fuliginea assessed as cucumber powdery mildew disease control at 31.3 ppm treated on upper surface of leaf 24 hr before inoculation at 23 +/- 2 degC measured after 10 days by preventive manner
Botrytis cinerea [8] = test: Fungicidal activity against Botryotinia fuckeliana assessed as cucumber gray mold disease control at 31.3 ppm treated on upper surface of leaf 24 hr before inoculation at 22 +/- 2 degC measured after 3 days by preventive manner
Botrytis cinerea [9] = test: Fungicidal activity against Botryotinia fuckeliana assessed as cucumber gray mold disease control at 7.8 ppm treated on upper surface of leaf 24 hr before inoculation at 22 +/- 2 degC measured after 3 days by preventive manner
[10] = system: Pseudoperonospora cubensis; test: Fungicidal activity against Pseudoperonospora cubensis assessed as cucumber downy mildew disease control at 31.3 ppm foliar application 24 hr before inoculation onto the abaxial(treated) surface of leaf by preventive manner
[11] = system: Pseudoperonospora cubensis; test: Fungicidal activity against Pseudoperonospora cubensis assessed as cucumber downy mildew disease control at 7.8 ppm foliar application 24 hr before inoculation onto the adaxial(treated) surface of leaf by preventive manner
[12] = system: Pseudoperonospora cubensis; test: Fungicidal activity against Pseudoperonospora cubensis assessed as cucumber downy mildew disease control at 125 ppm foliar application 24 hr before inoculation onto the abaxial(treated) surface of leaf by preventive manner
[13] = system: Pseudoperonospora cubensis; test: Fungicidal activity against Pseudoperonospora cubensis assessed as cucumber downy mildew disease control at 7.8 ppm foliar application 24 hr before inoculation onto the abaxial(treated) surface of leaf by preventive manner
[14] = system: Pseudoperonospora cubensis; test: Fungicidal activity against Pseudoperonospora cubensis assessed as cucumber downy mildew disease control at 125 ppm foliar application 24 hr after inoculation by curative manner
[15] = system: Pseudoperonospora cubensis; test: Fungicidal activity against Pseudoperonospora cubensis assessed as cucumber downy mildew disease control at 7.8 ppm foliar application 24 hr after inoculation by curative manner
[16] = system: Pseudoperonospora cubensis; test: Fungicidal activity against Pseudoperonospora cubensis assessed as cucumber downy mildew disease control at 2 ppm foliar application 24 hr before inoculation onto the adaxial(treated) surface of leaf by preventive manner
[17] = system: Pseudoperonospora cubensis; test: Fungicidal activity against Pseudoperonospora cubensis assessed as cucumber downy mildew disease control at 31.3 ppm foliar application 24 hr after inoculation by curative manner
[18] = system: Pseudoperonospora cubensis; test: Fungicidal activity against Pseudoperonospora cubensis assessed as cucumber downy mildew disease control at 31.3 ppm foliar application 24 hr before inoculation onto the adaxial(treated) surface of leaf by preventive manner
[19] = system: Pseudoperonospora cubensis; test: Fungicidal activity against Pseudoperonospora cubensis assessed as cucumber downy mildew disease control at 2 ppm foliar application 24 hr after inoculation by curative manner
[20] = system: Pseudoperonospora cubensis; test: Fungicidal activity against Pseudoperonospora cubensis assessed as cucumber downy mildew disease control at 2 ppm foliar application 24 hr before inoculation onto the abaxial(treated) surface of leaf by preventive manner

Row | Compound | Activity (Podosphaera fuliginea [1]) | Activity [2] | Activity (Botrytis cinerea [3]) | Activity [5] | Activity (Botrytis cinerea [9]) | Activity [11] | other results
1 | CNC(=O)C(OC)c1ccccc1CO/N=C(/C)c1ccc(C(F)(F)F)cc1 (racemic) | 90% | <90% | 50% | – | – | – | Activity [4]: 90%
2 | CNC(=O)C(OC)c1ccccc1CO/N=C(/C)c1ccc(OC)cc1 (racemic) | – | <90% | 50% | 90% | – | – | Activity (Podosphaera fuliginea [6]): 90%
3 | CCCCOc1ccc(/C(C)=N/OCc2ccccc2C(OC)C(=O)NC)cc1 (racemic) | – | <90% | – | 90% | – | – | Activity (Podosphaera fuliginea [7]): 90%; Activity (Botrytis cinerea [8]): 50%
4 | CNC(=O)C(OC)c1ccccc1CO/N=C(\C)c1ccc(O)cc1 (racemic) | – | <90% | <50% | 90% | – | – | Activity (Podosphaera fuliginea [6]): <90%
5 | CNC(=O)C(OC)c1ccccc1CO/N=C(\C)c1ccc(-c2ccccc2)cc1 (racemic) | 90% | <90% | – | <90% | 50% | – | –
6 | CNC(=O)C(OC)c1ccccc1CO/N=C(\C)c1ccc(Cl)cc1Cl (racemic) | – | <90% | – | – | – | – | Activity (Podosphaera fuliginea [7]): 90%; Activity (Botrytis cinerea [8]): 50%
7 | CNC(=O)C(OC)c1ccccc1CO/N=C(\C)c1ccc(Cl)c(Cl)c1 (racemic) | 90% | – | – | – | 50% | 90% | Activity [10]: 90%
8 | CNC(=O)C(OC)c1ccccc1CO/N=C(\C)c1ccc(C)cc1C (racemic) | – | 90% | – | – | – | – | Activity (Podosphaera fuliginea [7]): 90%; Activity (Botrytis cinerea [8]): 50%; Activity [4]: 90%
9 | CNC(=O)C(OC)c1ccccc1CO/N=C(\C)c1cc(C)ccc1C (racemic) | – | <90% | <50% | 90% | – | – | Activity (Podosphaera fuliginea [6]): 90%
10 | CNC(=O)C(OC)c1ccccc1CO/N=C(\C)c1ccc(C)c(C)c1 (racemic) | 90% | – | – | – | – | 90% | Activity (Botrytis cinerea [8]): 50%; Activity [12]: 90%
11 | CNC(=O)C(OC)c1ccccc1CO/N=C(\C)c1cc(C)cc(C)c1C (racemic) | 90% | <90% | 50% | 90% | – | – | –
12 | CC/C(=N\OCc1ccccc1C(OC)C(=O)NC)c1ccc(Cl)cc1 (racemic) | 90% | – | – | – | 50% | 90% | Activity [13]: 90%
13 | CNC(=O)C(OC)c1ccccc1CO/N=C(/SC)c1ccc(Cl)cc1 (racemic) | – | 97% | 50% | 100% | – | 100% | Activity (Podosphaera fuliginea [7]): 90%; Activity [14]: 87%; Activity [15]: 35%; Activity [16]: 100%; Activity [17]: 60%; Activity [18]: 100%; Activity [10]: 50%; Activity [19]: 10%; Activity [13]: 40%; Activity [20]: 20%; Activity [12]: 64%; Activity [4]: 100%
14 | CNC(=O)C(OC)c1ccccc1CO/N=C(/C)c1ccc(Cl)cc1 (racemic) | – | <90% | 50% | – | – | – | Activity (Podosphaera fuliginea [7]): 90%; Activity [4]: 90%
15 | CCOc1ccc(/C(C)=N/OCc2ccccc2C(OC)C(=O)NC)cc1 (racemic) | 90% | <90% | – | 90% | – | – | Activity (Botrytis cinerea [8]): 50%
16 | CNC(=O)C(OC)c1ccccc1CO/N=C(\C)c1ccc(C(C)(C)C)cc1 (racemic) | 90% | <90% | – | 90% | – | – | Activity (Botrytis cinerea [8]): 50%

Row | Compound | Activity (Podosphaera fuliginea [1]) | Activity [2] | Activity (Botrytis cinerea [3]) | Activity [5] | Activity (Botrytis cinerea [9]) | Activity [11] | other results
17 | CCc1ccc(/C(C)=N/OCc2ccccc2C(OC)C(=O)NC)cc1 (racemic) | 90% | 90% | – | – | 50% | 90% | –
18 | CNC(=O)C(OC)c1ccccc1CO/N=C(\C)c1ccc(C)cc1 (racemic) | 90% | 90% | – | – | 50% | 90% | –
19 | CNC(=O)C(OC)c1ccccc1CO/N=C(\C)c1ccc(Br)cc1 (racemic) | 90% | – | – | – | 50% | 90% | Activity [10]: 90%
20 | CNC(=O)C(OC)c1ccccc1CO/N=C(\C)c1ccc(F)cc1 (racemic) | 90% | – | – | – | – | – | Activity (Botrytis cinerea [8]): 50%; Activity [18]: 90%; Activity [10]: 90%
21 | CNC(=O)C(OC)c1ccccc1CO/N=C(\C)c1ccc(C(F)(F)F)cc1 (racemic) | 90% | 100% | – | 100% | 50% | 100% | Activity [14]: 75%; Activity [15]: 40%; Activity [16]: 100%; Activity [17]: 70%; Activity [18]: 100%; Activity [10]: 91%; Activity [19]: 25%; Activity [13]: 40%; Activity [20]: 15%; Activity [12]: 96%; Activity [4]: 100%
22 | CNC(=O)C(OC)c1ccccc1CO/N=C(\C)c1cccc(C(F)(F)F)c1 (racemic) | 90% | 90% | – | – | 50% | 90% | –
23 | CNC(=O)C(OC)c1ccccc1CO/N=C(\C)c1ccccc1C(F)(F)F (racemic) | – | <90% | <50% | <90% | – | – | Activity (Podosphaera fuliginea [6]): 90%
24 | CNC(=O)C(OC)c1ccccc1CO/N=C(\C)c1ccc(Cl)cc1 (racemic) | 90% | 97% | – | 100% | 50% | 100% | Activity [14]: 70%; Activity [15]: 5%; Activity [16]: 0%; Activity [17]: 50%; Activity [18]: 100%; Activity [10]: 70%; Activity [19]: 0%; Activity [13]: 0%; Activity [20]: 0%; Activity [12]: 85%; Activity [4]: 100%
25 | CNC(=O)C(OC)c1ccccc1CO/N=C(\C)c1cccc(Cl)c1 (racemic) | 90% | – | – | – | 50% | 90% | Activity [10]: 90%
26 | CNC(=O)C(OC)c1ccccc1CO/N=C(\C)c1ccccc1Cl (racemic) | – | <90% | 50% | 90% | – | – | Activity (Podosphaera fuliginea [6]): 90%
27 | CNC(=O)C(OC)c1ccccc1CO/N=C(\C)c1ccccc1 (racemic) | – | <90% | – | <90% | – | – | Activity (Podosphaera fuliginea [7]): 90%; Activity (Botrytis cinerea [8]): 50%
28 | CNC(=O)C(OC)c1ccccc1CO/N=C/c1ccccc1 (racemic) | – | <90% | 50% | <90% | – | – | Activity (Podosphaera fuliginea [6]): <90%
29 | CNC(=O)C(OC)c1ccccc1COCc1ccccc1 (racemic) | – | <90% | <50% | 90% | – | – | Activity (Podosphaera fuliginea [6]): <90%
30 | CNC(=O)C(OC)c1ccccc1COC(=O)c1ccccc1 (racemic) | – | <90% | <50% | 90% | – | – | Activity (Podosphaera fuliginea [6]): <90%
31 | CNC(=O)C(OC)c1ccccc1Oc1ccccc1 (racemic) | – | <90% | <50% | <90% | – | – | Activity (Podosphaera fuliginea [6]): <90%
